The source of these data is patent US12133921B2, “Capsule filling composition, method of producing capsule formulation with the use of capsule filling composition, and capsule formulation” (SHIN-ETSU CHEMICAL CO., LTD., priority 2019, dated 2024).

The series in a line: Compressibility index of the active ingredient. Format: physicochemical. The settings on record: 2,000 mg compressed at 0.5 N, remaining weight after three droppings from 1 cm, n=5. On the procedure: The active ingredient weighing 2,000 mg was introduced into a polycarbonate tube (a hollow cylindrical form with an inner diameter of 12.5 mm and a height of 52.0 mm; “polycarbonate spacer (hollow) CPC (CPC-1252); manufactured by Hirosugi Keiki Co., Ltd.) which was left to stand on a stainless steel bat. Next, by using a tension and compression testing machine (“SDT—503 NB”; manufactured by Imada Seisakusho Co., Ltd.), the active ingredient within the polycarbonate tube was compressed by a cylindrical tool having a contact surface of 11.28 mmΦ in diameter to prepare a compressed product (compression condition; speed: 100 mm/min., load: 0.5 N, load maintaining time: 1 sec.). […]
The lifted polycarbonate tube was released from the fingers, and dropped down. After repeating this procedure three times, the remaining weight of the polycarbonate tube containing the compressed product of the active ingredient was measured as a weight after test.
The amount of powder flowing out from the polycarbonate tube was determined by subtracting the weight after test from the weight before test. Furthermore, the remaining weight of the compressed product of the active ingredient was determined by subtracting the amount of powder flowing out from the polycarbonate tube from the weight before test. […]

`Cc1cc2nc3c(=O)[nH]c(=O)nc-3n(C[C@H](O)[C@H](O)[C@H](O)CO)c2cc1C` [vitamin B2, riboflavin] displayed a compressibility index of 5%.
